The assay has as its target Serine/threonine-protein kinase pim-2 (Homo sapiens, UniProt Q9P1W9). Nature of the assay: Pim Kinase Dose-Response Assay. The following applies: pH 7.5; 22 °C.

The text below walks through data of BindingDB's records for doi:10.1021/jm801242y (Boehringer Ingelheim Pharmaceuticals, 2009).

Serine/threonine-protein kinase pim-2, sequence (Q9P1W9 whole entry): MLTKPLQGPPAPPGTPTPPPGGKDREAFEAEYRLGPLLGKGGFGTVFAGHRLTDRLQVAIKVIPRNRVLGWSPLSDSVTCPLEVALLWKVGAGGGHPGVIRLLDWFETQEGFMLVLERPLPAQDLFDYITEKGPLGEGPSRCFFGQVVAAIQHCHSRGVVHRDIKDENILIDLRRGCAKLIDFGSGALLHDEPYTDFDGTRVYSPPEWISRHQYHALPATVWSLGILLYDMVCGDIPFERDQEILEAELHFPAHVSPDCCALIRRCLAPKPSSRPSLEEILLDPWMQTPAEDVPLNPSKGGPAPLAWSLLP
Method: The activity of Pim kinase was measured in a homogeneous luciferase assay using GST-Pim, biotinylated peptide substrate and a luciferin-luciferase detection reagent to quantify residual ATP. Test compounds were serially diluted for the 10-point concentration response. […] Following incubation, ATP detection reagent was added to the assay plates and the relative light unit (RLU) signal was measured on the Analyst (Molecular Devices) in luminescence mode. The RLU signals were converted to percent of control in dose-response curves. The IC50 was determined as the inflection point parameter.

For `CN1CCCN(c2cncc(-c3cccc(C=Cc4nnn[nH]4)c3)n2)CC1` [1-methyl-4-(6-{3-[(E)-2-(1H-1,2,3,4-tetrazol-5-yl)ethenyl]phenyl}pyrazin-2-yl)-1,4-diazepane], it took 160 nM to reach half-maximal inhibition (IC50).
On to `CN1CCCN(c2cnccn2)CC1` [1-methyl-4-(pyrazin-2-yl)-1,4-diazepane], for which the IC50 – broadly, the concentration that gives 50% inhibition – is greater than 8000 nM.
